Data: patent US20250326744A1, “PIPERAZINE DERIVATIVE OR SALT THEREOF, AND PHARMACEUTICAL COMPOSITION” (priority 2022, published 2025)
Where a name gives a salt, the structure may show the parent alone.

Legend:
mexY (EC) strain = assay: Efflux ability inhibition effect on drug efflux pump MexY (Test Examples 1 and 3): proliferation (OD595) of mexY (EC) strain with EM or LVFX at 1/4 MIC, EC75; format: cell-based, Escherichia coli; conditions: for EC75, mexY (EC) strain, EM: combined with EM at 1/4 MIC; for EC75, mexY (EC) strain, LVFX: combined with LVFX at 1/4 MIC
Experimental: The efflux ability inhibition effect of the test compound on the drug efflux pump was evaluated using the bacterial proliferative ability in the presence of EM or LVFX as an index.
EM is a macrolide antibacterial agent and is a drug that is discharged outside the bacteria by MexB and MexY LVFX is a quinolone antibacterial agent and is a drug that is discharged outside the bacteria by MexB and MexY In a case where the test compound has an efflux ability inhibitory ability against the drug efflux pump, the proliferation of bacteria is suppressed by the combined use of EM or LVFX and the test compound, as compared with the case where EM or LVFX is used alone.
A mutant strain (hereinafter, referred to as an “mexB (EC) strain”) obtained by transferring the genes of the main multidrug efflux system MexAB-OprM of Pseudomonas aeruginosa described in Nature, 2013, Vol. 500, pp. 102 to 106 as a plasmid into Escherichia coli strains in which the acrB and tolC genes of the multidrug efflux system AcrAB-TolC were deleted as described in Journal of Infection and Chemotherapy 2008, Vol. 14, pp. 23 to 29, and a gene transfer strain (hereinafter, referred to as an “mexY (EC) strain”) of another main multidrug efflux system MexXY-OprM of Pseudomonas aeruginosa were used for the evaluation of test compounds.
In the mexB (EC) strain, an expression level of MexB of the drug efflux pump is accelerated, and in the mexY (EC) strain, an expression level of MexY of the drug efflux pump is accelerated.
For culturing each Escherichia coli strain, a 96-well plate (amount of culture medium per well: 100 μL) was used and Luria-Bertani broth (LB) culture medium was used. The inoculation amount of the bacteria was set to 10^4 to 5 CFU/well.
The mexB (EC) strain and the mexY (EC) strain were cultured for 16 to 20 hours in a culture medium to which EM or LVFX and test compounds at various concentrations (0 to 800 μM) were added, and the proliferation of the bacterial strains was evaluated by optical turbidity at 595 nm (OD595). The concentration of the antibacterial agents (EM and LVFX) in the culture medium were each set to ¼ of the minimum inhibitory concentration (MIC) (hereinafter, referred to as ¼ MIC) of the single antibacterial agent.
The proliferation of bacteria in a case where the antibacterial agent was added at the concentration of ¼ MIC in a case where the test compound was not added was measured, and compared with the proliferation of bacteria in a case where the test compound was contained, and the lowest concentration of the test compound at which the proliferation was inhibited by 75% or more was defined as the drug efflux pump inhibitory ability of the test compound as 75% inhibitory effect concentration (EC75).
The drug efflux pump inhibitory ability of each test compound in a case of being used in combination with the antibacterial agent against the mexB (EC) strain and the mexY (EC) strain was evaluated as follows according to the value of EC75. • S: EC75≤[…] • A: 12.5 μM<EC75≤25 μM • B: 25 μM<EC75≤100 μM • C: […]
In the same manner as in Test Example 1, the efflux ability inhibition effect of the test compound on the drug efflux pump was evaluated using the bacterial proliferation ability in the presence of EM or LVFX as an index.

mexB (PA) strain = assay: Combinational effect with antibacterial agent against Pseudomonas aeruginosa (Test Examples 2 and 4): mexB (PA) strain with LVFX, TC or AZT at 1/4 MIC, EC99; format: cell-based; conditions: for EC99, mexB (PA), AZT / EC99, combinational effect with AZT, mexB (PA): combined with AZT at 1/4 MIC; for EC99, mexB (PA), LVFX / EC99, combinational effect with LVFX, mexB (PA): combined with LVFX at 1/4 MIC; for EC99, combinational effect with AZT, mexB (PA) / EC99, combinational effect with LVFX, mexB (PA) / EC99, combinational effect with TC, mexB (PA): mexB (PA) strain, Test Example 4
Method in brief: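 EC99 denotes the minimum test-compound concentration (range 0–800 μM) that suppresses ≥99% of growth, measured by OD595, when combined with ¼ MIC levofloxacin (LVFX), tetracycline or aztreonam. The efflux-pump mutant mexB (PA), expressing mainly MexAB-OprM, was inoculated at 10^4–5 CFU/well in CAMHB for 16–20 h.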

S-3769 strain = assay: Combinational effect with antibacterial agent against Pseudomonas aeruginosa (Test Examples 2 and 4): S-3769 strain with AMK or GM at 1/4 MIC, EC99; format: cell-based; conditions: for EC99, combinational effect with AMK, S-3769 strain / EC99, combinational effect with GM, S-3769 strain: Test Example 4
Method in brief: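 EC99, the lowest test-compound concentration inhibiting growth by ≥99% (OD595), was measured with aminoglycoside AMK or GM held at ¼ MIC. Strain S-3769, a MexY-overexpressing clinical isolate, was cultured in CAMHB at 10^4 to 5 CFU/well for 16–20 h; compound range 0–800 μM.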

[1] = Table 51, Test Example 1, 16 to 20 hours culture, OD595
[2] = Table 52, Test Example 2, 16 to 20 hours culture, OD595
[3] = Table 53, Test Example 3, same manner as Test Example 1

SMILES | EC75, mexY (EC) strain, EM (mexY (EC) strain; [1]) | EC75, mexY (EC) strain, LVFX (mexY (EC) strain; [1]) | EC99, mexB (PA), AZT (mexB (PA) strain; [2]) | EC99, mexB (PA), LVFX (mexB (PA) strain; [2]) | EC99, S-3769 strain, AMK (S-3769 strain; Table 52, Test Example 2, combined with AMK at 1/4 MIC, 16 to 20 hours culture, OD595) | EC99, S-3769 strain, GM (S-3769 strain; Table 52, Test Example 2, combined with GM at 1/4 MIC, 16 to 20 hours culture, OD595) | EC99, mexB (PA), TC (mexB (PA) strain; Table 52, Test Example 2, combined with TC at 1/4 MIC, 16 to 20 hours culture, OD595) | EC75, mexY (EC) strain, EM (mexY (EC) strain; [3]) | EC99, combinational effect with AMK, S-3769 strain (S-3769 strain; combined with AMK at 1/4 MIC) | EC99, combinational effect with GM, S-3769 strain (S-3769 strain; combined with GM at 1/4 MIC) | EC99, combinational effect with AZT, mexB (PA) (mexB (PA) strain) | EC99, combinational effect with LVFX, mexB (PA) (mexB (PA) strain) | EC99, combinational effect with TC, mexB (PA) (mexB (PA) strain; combined with TC at 1/4 MIC) | EC75, mexY (EC) strain, LVFX (mexY (EC) strain; [3])
COc1ccccc1CN1CCN(C(=O)CN2CCC(C#Cc3ccccc3)CC2)CC1 [Example 405, Hydrochloride of 1-(4-(2-methoxybenzyl)piperazin-1-yl)-2-(4-(phenylethynyl)piperidin-1-yl)ethan-1-one] | B (25 μM<EC75≤100 μM) | B (25 μM<EC75≤100 μM) | B (25 μM<EC99≤100 μM) | A (12.5 μM<EC99≤25 μM) | – | – | – | – | – | – | – | – | – | –
CCOc1cccc(F)c1CN1CCN(C(=O)CN2CCC(C(N)Cc3ccccc3)CC2)CC1 (stereo not drawn) [Example 423, hydrochloride of 2-(4-(1-amino-2-phenylethyl)piperidin-1-yl)-1-(4-(2-ethoxy-6-fluorobenzyl)piperazin-1-yl)ethan-1-one] | B (25 μM<EC75≤100 μM) | A (12.5 μM<EC75≤25 μM) | C (100 μM<EC99) | C (100 μM<EC99) | C (100 μM<EC99) | C (100 μM<EC99) | B (25 μM<EC99≤100 μM) | – | – | – | – | – | – | –
CCOc1cccc(F)c1CN1CCN(C(=O)[C@H](N)C2CCN(CCc3cc(Cl)ccc3-c3ccnn3C)CC2)CC1 [Example 503, Hydrobromide of (R)-2-amino-2-(1-(5-chloro-2-(1-methyl-1H-pyrazol-5-yl)phenethyl)piperidin-4-yl)-1-(4-(2-ethoxy-6-fluorobenzyl)piperazin-1-yl)ethan-1-one] | – | – | – | – | – | – | – | A (12.5 μM<EC75≤25 μM) | B (25 μM<EC99≤100 μM) | B (25 μM<EC99≤100 μM) | C (100 μM<EC99) | C (100 μM<EC99) | C (100 μM<EC99) | –
N[C@@H](C(=O)N1CCN(Cc2nccc3c2OCCO3)CC1)C1CCN(CCc2cc(Cl)ccc2-c2ccccc2)CC1 [Example 520, Hydrobromide of (R)-2-amino-2-(1-(2-(4-chloro-[1,1-biphenyl]-2-yl)ethyl)piperidin-4-yl)-1-(4-((2,3-dihydro-[1,4]dioxino[2,3-c]pyridin-5-yl)methyl)piperazin-1-yl)ethan-1-one] | – | – | – | – | – | – | – | A (12.5 μM<EC75≤25 μM) | B (25 μM<EC99≤100 μM) | C (100 μM<EC99) | C (100 μM<EC99) | C (100 μM<EC99) | C (100 μM<EC99) | A (12.5 μM<EC75≤25 μM)
CSc1ccc(CN2CCN(C(=O)[C@H](N)C3CCN(CCc4cc(Cl)ccc4-c4ccccc4)CC3)CC2)s1 [Example 523, Hydrobromide of (R)-2-amino-2-(1-(2-(4-chloro-[1,1-biphenyl]-2-yl)ethyl)piperidin-4-yl)-1-(4-((5-(methylthio)thiophen-2-yl)methyl)piperazin-1-yl)ethan-1-one] | – | – | – | – | – | – | – | – | B (25 μM<EC99≤100 μM) | B (25 μM<EC99≤100 μM) | B (25 μM<EC99≤100 μM) | B (25 μM<EC99≤100 μM) | B (25 μM<EC99≤100 μM) | A (12.5 μM<EC75≤25 μM)
CSc1ccccc1CN1CCN(C(=O)[C@H](N)C2CCN(CCc3cc(Cl)ccc3-c3cccc(Cl)c3)CC2)CC1 [Example 552, Hydrobromide of (R)-2-amino-2-(1-(2-(3′,4-dichloro-[1,1-biphenyl]-2-yl)ethyl)piperidin-4-yl)-1-(4-(2-(methylthio)benzyl)piperazin-1-yl)ethan-1-one] | – | – | – | – | – | – | – | A (12.5 μM<EC75≤25 μM) | B (25 μM<EC99≤100 μM) | S (EC99≤12.5 μM) | S (EC99≤12.5 μM) | S (EC99≤12.5 μM) | S (EC99≤12.5 μM) | A (12.5 μM<EC75≤25 μM)
CSc1ccccc1CN1CCN(C(=O)[C@H](N)C2CCN(CCc3cc(Cl)ccc3-c3ccccc3Cl)CC2)CC1 [Example 555, Hydrobromide of (R)-2-amino-2-(1-(2-(2′,4-dichloro-[1,1-biphenyl]-2-yl)ethyl)piperidin-4-yl)-1-(4-(2-(methylthio)benzyl)piperazin-1-yl)ethan-1-one] | – | – | – | – | – | – | – | A (12.5 μM<EC75≤25 μM) | B (25 μM<EC99≤100 μM) | B (25 μM<EC99≤100 μM) | B (25 μM<EC99≤100 μM) | B (25 μM<EC99≤100 μM) | A (12.5 μM<EC99≤25 μM) | A (12.5 μM<EC75≤25 μM)
CCOc1cccc(F)c1CN1CCN(C(=O)[C@H](N)C2CC[N+](CCc3cc(Cl)ccc3-c3ccccc3)(CC(=O)[O-])CC2)CC1 (stereo partly drawn) [Example 567, Hydrobromide of (R)-2-(4-(1-amino-2-(4-(2-ethoxy-6-fluorobenzyl)piperazin-1-yl)-2-oxoethyl)-1-(2-(4-chloro-[1,1-biphenyl]-2-yl)ethyl)piperidin-4-ium-1-yl)acetate] | – | – | – | – | – | – | – | B (25 μM<EC75≤100 μM) | B (25 μM<EC99≤100 μM) | C (100 μM<EC99) | C (100 μM<EC99) | C (100 μM<EC99) | C (100 μM<EC99) | B (25 μM<EC75≤100 μM)
CCOc1cccc(F)c1CN1CCN(C(=O)[C@H](N)C2CCN(CCc3cc(Cl)ccc3-c3c[nH]ccc3=O)CC2)CC1 [Example 577, Hydrochloride of (R)-3-(2-(2-(4-(1-amino-2-(4-(2-ethoxy-6-fluorobenzyl)piperazin-1-yl)-2-oxoethyl)piperidin-1-yl)ethyl)-4-chlorophenyl)pyridine-4(1H)-one] | – | – | – | – | – | – | – | – | C (100 μM<EC99) | C (100 μM<EC99) | B (25 μM<EC99≤100 μM) | B (25 μM<EC99≤100 μM) | B (25 μM<EC99≤100 μM) | A (12.5 μM<EC75≤25 μM)
